Assay results: patent publication US20160024414A1, “IONIC LIQUIDS AS L[…] BASE STOCKS, COBASE STOCKS AND MULTI[…]” ([…] AND ENGINEERING COMPANY, priority 2012, published 2016)

Key:
[1] = Kinematic viscosity (ASTM D-445); format: physicochemical
Experimental: The kinematic viscosity (Kv) of the ionic liquid products of Examples 2-5, 7 and 8 was measured using ASTM standards D-445 and reported at temperatures of 100° C. (Kv at 100° C.) or 40° C. (Kv at 40° C.). The viscosity index (VI) was measured according to ASTM standard D-2270 using the measured kinematic viscosities for each product.

Substance: 1-butyl-3-hexylimidazolium bis(2-ethylhexyl) phosphate [Example 7]
- solubility in AN (alkylated naphthalene) (solvent: AN (alkylated naphthalene)): 5%

Substance: dihexadecyldimethylammonium bis(2-ethylhexyl) phosphate [Example 8]
- solubility in PAO4 (in words) (solvent: PAO4): soluble

Substance: tetradecylammonium bis(2-ethylhexyl) phosphate [Example 4]
- Kv100 (kinematic viscosity at 100° C.) [1]: > 150 cSt
